Measured values: patent US7273716B2 (priority 2003, dated 2007)

Legend:
GS-7340 ester hydrolase = biological target: T1, GS-7340 ester hydrolase (Homo sapiens, UniProt P10619); assay: biochemical
T1 construct: Fresh human PBMCs are obtained from patients undergoing leukophoresis; from tissue; host or cells: human peripheral blood mononuclear cells (PBMC extract, purified by Q15, Butyl Sepharose HIC and Con A chromatography)
T1 sequence (P10619 29-326 limits assumed): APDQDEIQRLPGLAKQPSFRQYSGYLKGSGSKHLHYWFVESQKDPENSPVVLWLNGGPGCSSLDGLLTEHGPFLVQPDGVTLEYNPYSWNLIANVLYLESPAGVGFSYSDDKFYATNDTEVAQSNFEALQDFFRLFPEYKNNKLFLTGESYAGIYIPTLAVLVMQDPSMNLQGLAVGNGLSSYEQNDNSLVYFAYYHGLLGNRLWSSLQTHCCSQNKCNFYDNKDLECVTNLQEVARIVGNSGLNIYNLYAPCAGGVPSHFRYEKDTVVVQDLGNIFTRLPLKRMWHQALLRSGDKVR
T1 sequence (P10619 327-480 limits assumed): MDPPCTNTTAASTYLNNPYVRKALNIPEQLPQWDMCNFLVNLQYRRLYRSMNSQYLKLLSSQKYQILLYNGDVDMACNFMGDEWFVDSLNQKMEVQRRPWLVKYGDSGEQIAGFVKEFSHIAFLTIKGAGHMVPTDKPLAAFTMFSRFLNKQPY

[1] = tested on: Cat A+ and Cat A- human primary fibroblasts; assay: Metabolism of acyclic nucleotide phosphonate prodrugs in Cat A+/- fibroblasts; details: 10 μM 14C-labeled Compound K, 37° C., 15-240 min

O=c1oc(Cl)c(Cl)c2ccccc12 [3,4-dichloroisocoumarin, 3,4 dichloroisocoumarin]
IC50 (GS-7340 ester hydrolase): 0.5 µM

C=C(OC(C)C)[C@H](C)N[P@](=O)(CO[C@H](C)Cn1cnc2c(C)ncnc21)Oc1ccccc1 [Compound K]
concentration of metabolites in Cat A+ control fibroblasts relative to Cat A- (galactosialidosis) fibroblasts [1]: 6-9 times
